PubChem BioAssay (NCI)
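Compound exposure: 48 hours, 5 concentrations, 96-well plates. TGI denotes the concentration required for complete inhibition of growth.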

Tests used:
Assay in all cases: growth of human tumour cells (NCI), 48 h
SK-OV-3 ovarian = test system: SK-OV-3 ovarian
UACC-62 melanoma = test system: UACC-62 melanoma
SK-MEL-5 melanoma = test system: SK-MEL-5 melanoma
NCI-H460 lung = test system: NCI-H460 lung
K-562 leukemia = test system: K-562 leukemia
MDA-MB-231 breast = test system: MDA-MB-231 breast
OVCAR-8 ovarian = test system: OVCAR-8 ovarian
SR leukemia = test system: SR leukemia
UO-31 renal = test system: UO-31 renal
IGROV1 ovarian = test system: IGROV1 ovarian
T-47D breast = test system: T-47D breast
NCI/ADR-RES ovarian = test system: NCI/ADR-RES ovarian
HCT-116 colon = test system: HCT-116 colon
UACC-257 melanoma = test system: UACC-257 melanoma
MOLT-4 leukemia = test system: MOLT-4 leukemia
SN12C renal = test system: SN12C renal
DU-145 prostate = test system: DU-145 prostate
HS 578T breast = test system: HS 578T breast
RPMI-8226 leukemia = test system: RPMI-8226 leukemia
SK-MEL-28 melanoma = test system: SK-MEL-28 melanoma
NCI-H226 lung = test system: NCI-H226 lung
KM12 colon = test system: KM12 colon
MDA-N = test system: MDA-N
OVCAR-4 ovarian = test system: OVCAR-4 ovarian
COLO 205 colon = test system: COLO 205 colon
CAKI-1 renal = test system: CAKI-1 renal
HCC-2998 colon = test system: HCC-2998 colon
EKVX NSCLC = test system: EKVX NSCLC
SK-MEL-2 melanoma = test system: SK-MEL-2 melanoma
SF-295 CNS = test system: SF-295 CNS
SW-620 colon = test system: SW-620 colon
HCT-15 colon = test system: HCT-15 colon
SNB-19 CNS = test system: SNB-19 CNS
MALME-3M melanoma = test system: MALME-3M melanoma
NCI-H23 lung = test system: NCI-H23 lung
OVCAR-3 ovarian = test system: OVCAR-3 ovarian
NCI-H522 lung = test system: NCI-H522 lung
SF-539 CNS = test system: SF-539 CNS
OVCAR-5 ovarian = test system: OVCAR-5 ovarian
MCF7 breast = test system: MCF7 breast
BT-549 breast = test system: BT-549 breast
LOX IMVI melanoma = test system: LOX IMVI melanoma
HT29 colon = test system: HT29 colon
PC-3 prostate = test system: PC-3 prostate
SF-268 CNS = test system: SF-268 CNS
TK-10 renal = test system: TK-10 renal
M14 melanoma = test system: M14 melanoma
HOP-62 NSCLC = test system: HOP-62 NSCLC
A549 NSCLC = test system: A549 NSCLC
SNB-75 CNS = test system: SNB-75 CNS
MDA-MB-435 = test system: MDA-MB-435
ACHN renal = test system: ACHN renal
A498 renal = test system: A498 renal
U251 CNS = test system: U251 CNS
RXF 393 renal = test system: RXF 393 renal
786-0 renal = test system: 786-0 renal
HOP-92 NSCLC = test system: HOP-92 NSCLC
HL-60(TB) leukemia = test system: HL-60(TB) leukemia
CCRF-CEM leukemia = test system: CCRF-CEM leukemia

## CN(C)CCn1c(=O)nc2c3c(c([N+](=O)[O-])ccc31)Nc1ccc(O)cc1-2
SK-OV-3 ovarian
  TGI: 35.1 µM
UACC-62 melanoma
  TGI: 23.2 µM
SK-MEL-5 melanoma
  TGI: 20.1 µM
NCI-H460 lung
  TGI: 15.6 µM
K-562 leukemia
  TGI: > 25.7 µM
MDA-MB-231 breast
  TGI: 10.2 µM
OVCAR-8 ovarian
  TGI: 11.4 µM
SR leukemia
  TGI: 8.92 µM
UO-31 renal
  TGI: 28.7 µM
IGROV1 ovarian
  TGI: 12.3 µM
T-47D breast
  TGI: 6.48 µM
NCI/ADR-RES ovarian
  TGI: > 100 µM
HCT-116 colon
  TGI: 8.37 µM
UACC-257 melanoma
  TGI: > 54.9 µM
MOLT-4 leukemia
  TGI: 3.6 µM
SN12C renal
  TGI: 17.1 µM
DU-145 prostate
  TGI: > 47.5 µM
HS 578T breast
  TGI: 22.4 µM
RPMI-8226 leukemia
  TGI: 26.6 µM
SK-MEL-28 melanoma
  TGI: 32.7 µM
NCI-H226 lung
  TGI: 20.8 µM
KM12 colon
  TGI: > 27.5 µM
MDA-N
  TGI: 23.7 µM
OVCAR-4 ovarian
  TGI: > 42.7 µM
COLO 205 colon
  TGI: 14.5 µM
CAKI-1 renal
  TGI: > 45.7 µM
HCC-2998 colon
  TGI: 13.1 µM
EKVX NSCLC
  TGI: > 63.6 µM
SK-MEL-2 melanoma
  TGI: 33.6 µM
SF-295 CNS
  TGI: 24.8 µM
SW-620 colon
  TGI: > 42.6 µM
HCT-15 colon
  TGI: > 100 µM
SNB-19 CNS
  TGI: 16.8 µM
MALME-3M melanoma
  TGI: 18 µM
NCI-H23 lung
  TGI: 33.4 µM
OVCAR-3 ovarian
  TGI: 15.3 µM
NCI-H522 lung
  TGI: 6.13 µM
SF-539 CNS
  TGI: 8.36 µM
OVCAR-5 ovarian
  TGI: > 81.2 µM
MCF7 breast
  TGI: 5.68 µM
BT-549 breast
  TGI: 37 µM
LOX IMVI melanoma
  TGI: 3.15 µM
HT29 colon
  TGI: 15.3 µM
PC-3 prostate
  TGI: > 46.9 µM
SF-268 CNS
  TGI: 17.1 µM
TK-10 renal
  TGI: 36 µM
M14 melanoma
  TGI: > 49.3 µM
HOP-62 NSCLC
  TGI: 16.6 µM
A549 NSCLC
  TGI: 27.8 µM
SNB-75 CNS
  TGI: 21.2 µM
MDA-MB-435
  TGI: 46.6 µM
ACHN renal
  TGI: 17.4 µM
A498 renal
  TGI: 23.4 µM
U251 CNS
  TGI: 6.26 µM
RXF 393 renal
  TGI: 10.5 µM
786-0 renal
  TGI: 6.52 µM
HOP-92 NSCLC
  TGI: 16.2 µM

## CC1(C)C2CCC(=O)C1C(OCc1ccccc1)C2 (stereo not given)
SK-OV-3 ovarian
  TGI: > 100 µM
UACC-62 melanoma
  TGI: > 100 µM
SK-MEL-5 melanoma
  TGI: 50.6 µM
NCI-H460 lung
  TGI: > 100 µM
K-562 leukemia
  TGI: > 100 µM
MDA-MB-231 breast
  TGI: > 100 µM
OVCAR-8 ovarian
  TGI: > 100 µM
SR leukemia
  TGI: > 100 µM
UO-31 renal
  TGI: > 100 µM
IGROV1 ovarian
  TGI: > 100 µM
T-47D breast
  TGI: > 100 µM
NCI/ADR-RES ovarian
  TGI: > 100 µM
HCT-116 colon
  TGI: > 100 µM
UACC-257 melanoma
  TGI: > 100 µM
MOLT-4 leukemia
  TGI: > 100 µM
SN12C renal
  TGI: > 100 µM
DU-145 prostate
  TGI: > 100 µM
HS 578T breast
  TGI: > 100 µM
RPMI-8226 leukemia
  TGI: > 100 µM
SK-MEL-28 melanoma
  TGI: > 100 µM
NCI-H226 lung
  TGI: > 100 µM
KM12 colon
  TGI: > 100 µM
MDA-N
  TGI: > 100 µM
OVCAR-4 ovarian
  TGI: > 100 µM
COLO 205 colon
  TGI: > 100 µM
CAKI-1 renal
  TGI: > 100 µM
HCC-2998 colon
  TGI: > 100 µM
SK-MEL-2 melanoma
  TGI: > 100 µM
SF-295 CNS
  TGI: > 100 µM
SW-620 colon
  TGI: > 100 µM
HCT-15 colon
  TGI: > 100 µM
SNB-19 CNS
  TGI: > 100 µM
MALME-3M melanoma
  TGI: > 100 µM
NCI-H23 lung
  TGI: > 100 µM
OVCAR-3 ovarian
  TGI: > 100 µM
NCI-H522 lung
  TGI: > 100 µM
SF-539 CNS
  TGI: > 100 µM
OVCAR-5 ovarian
  TGI: > 100 µM
MCF7 breast
  TGI: > 100 µM
BT-549 breast
  TGI: > 100 µM
LOX IMVI melanoma
  TGI: > 100 µM
HT29 colon
  TGI: > 100 µM
PC-3 prostate
  TGI: > 100 µM
SF-268 CNS
  TGI: > 100 µM
TK-10 renal
  TGI: > 100 µM
M14 melanoma
  TGI: > 100 µM
HOP-62 NSCLC
  TGI: > 100 µM
A549 NSCLC
  TGI: > 100 µM
SNB-75 CNS
  TGI: > 100 µM
MDA-MB-435
  TGI: > 100 µM
ACHN renal
  TGI: > 100 µM
A498 renal
  TGI: > 100 µM
U251 CNS
  TGI: > 100 µM
HL-60(TB) leukemia
  TGI: > 100 µM
CCRF-CEM leukemia
  TGI: > 100 µM
RXF 393 renal
  TGI: > 100 µM
786-0 renal
  TGI: > 100 µM

## CC(C)c1nc(Cl)nc(Cl)c1Cl
SK-OV-3 ovarian
  TGI: 17.6 µM
UACC-62 melanoma
  TGI: 2.25 µM
SK-MEL-5 melanoma
  TGI: 6.7 µM
NCI-H460 lung
  TGI: 16.6 µM
K-562 leukemia
  TGI: 0.0708 µM
MDA-MB-231 breast
  TGI: 5.64 µM
OVCAR-8 ovarian
  TGI: 2.45 µM
SR leukemia
  TGI: 0.0209 µM
UO-31 renal
  TGI: 0.166 µM
IGROV1 ovarian
  TGI: 0.423 µM
T-47D breast
  TGI: 13.6 µM
NCI/ADR-RES ovarian
  TGI: > 56.4 µM
HCT-116 colon
  TGI: 1.41 µM
UACC-257 melanoma
  TGI: 1.91 µM
MOLT-4 leukemia
  TGI: 0.176 µM
SN12C renal
  TGI: 2.83 µM
DU-145 prostate
  TGI: 10.5 µM
HS 578T breast
  TGI: 2.91 µM
RPMI-8226 leukemia
  TGI: > 100 µM
SK-MEL-28 melanoma
  TGI: 2.72 µM
NCI-H226 lung
  TGI: 5.58 µM
KM12 colon
  TGI: 3.9 µM
MDA-N
  TGI: 4.9 µM
OVCAR-4 ovarian
  TGI: 0.751 µM
COLO 205 colon
  TGI: 13.9 µM
HCC-2998 colon
  TGI: 13.1 µM
EKVX NSCLC
  TGI: 6.62 µM
SF-295 CNS
  TGI: 8.91 µM
SW-620 colon
  TGI: 0.858 µM
HCT-15 colon
  TGI: 15.7 µM
SNB-19 CNS
  TGI: 3.06 µM
MALME-3M melanoma
  TGI: 12.9 µM
NCI-H23 lung
  TGI: 3.05 µM
OVCAR-3 ovarian
  TGI: 1.74 µM
NCI-H522 lung
  TGI: 1.54 µM
SF-539 CNS
  TGI: 1.82 µM
OVCAR-5 ovarian
  TGI: 3.93 µM
MCF7 breast
  TGI: 6.11 µM
BT-549 breast
  TGI: 0.0335 µM
LOX IMVI melanoma
  TGI: 0.198 µM
HT29 colon
  TGI: 2.52 µM
PC-3 prostate
  TGI: 4.19 µM
SF-268 CNS
  TGI: 9.12 µM
TK-10 renal
  TGI: 4.28 µM
M14 melanoma
  TGI: 1.83 µM
HOP-62 NSCLC
  TGI: 4.04 µM
A549 NSCLC
  TGI: 18.6 µM
SNB-75 CNS
  TGI: 22.7 µM
MDA-MB-435
  TGI: 2.69 µM
ACHN renal
  TGI: 1.85 µM
A498 renal
  TGI: 9.37 µM
U251 CNS
  TGI: 2.43 µM
CCRF-CEM leukemia
  TGI: 0.0358 µM
RXF 393 renal
  TGI: 1.47 µM
786-0 renal
  TGI: 2.26 µM
HOP-92 NSCLC
  TGI: 0.381 µM
